Reference: PMC10388363, “Novel 1,4-Dihydropyridines as Specific Binders and Activators of SIRT3 Impair Cell Viability and Clonogenicity and Downregulate Hypoxia-Induced Targets in Cancer Cells” (Journal of Medicinal Chemistry, 2023)

How the values were obtained:
human SIRT3 [1] = target: T1, human SIRT3 (Homo sapiens, UniProt Q9NTG7); assay: Surface plasmon resonance binding assay, immobilized SIRT3; details: SPR, Scatchard analysis, analytes 5-80 μM
T1 construct: pET151D/Topo (Sirt3-114-380 and Sirt5-34-302); His tag (N, cleaved yes); made in house; host or cells: Escherichia coli
T1 sequence (Q9NTG7 114-380): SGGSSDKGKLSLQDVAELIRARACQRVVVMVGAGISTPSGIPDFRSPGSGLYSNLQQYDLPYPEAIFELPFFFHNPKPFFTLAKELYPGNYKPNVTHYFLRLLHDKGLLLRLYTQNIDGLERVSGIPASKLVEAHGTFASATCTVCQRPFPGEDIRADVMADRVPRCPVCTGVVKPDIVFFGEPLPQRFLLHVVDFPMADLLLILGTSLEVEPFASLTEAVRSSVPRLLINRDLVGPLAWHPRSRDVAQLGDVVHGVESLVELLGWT
Method: Next, surface plasmon resonance (SPR) experiments were conducted with selected SIRT3 activators 2e and 3a–d to ascertain their biophysical interaction with the human SIRT3 protein. Their parental compounds 2 and 3, together with honokiol, were used as positive controls. The experiments were carried out twice at different concentrations (5, 10, 20, 40, and 80 μM), by injecting the compounds at increasing doses (Figure 5). The resonance units (RU) increase with respect to baseline indicates the formation of the SIRT3/ligand complex, the plateau region represents the steady-state phase of the interaction (RUeq, RU at equilibrium) and the decrease in RU after 180 s represents dissociation of analytes from the immobilized SIRT3 protein after injection of the buffer.
SPR experiments were carried out using a SensiQ Pioneer system (SensiQ, Oklahoma City, OK, USA), essentially as in Genovese et al. 2020[84] and in Battista et al. 2021,[85] with some modifications, as follows.
The sensor chip (COOH5) was chemically activated by a 35 μL injection of a 1:1 mixture of […] (200 mM) and N-hydroxysuccinimide (50 mM) at a flow rate of 5 μL/min. Sirtuin3 (ligand) was immobilized on activated sensor chips via amine coupling. Immobilization was carried out in 20 mM sodium acetate at pH 4.0; unreacted groups were blocked by injecting 1 M ethanolamine hydrochloride (35 μL). Sirtuin3 immobilization level obtained was 1500–4000 RU.
The analytes, dissolved in 100% DMSO at 10 mM concentration, were diluted in buffer 20 mM Hepes, 150 mM NaCl, 0.005% surfactant P20 buffer (HBSP) to a concentration of 200 μM (2% final DMSO concentration), further diluted in HBSP + 2% DMSO (HBSP2%D) and injected on the sensor chip at a constant flow rate (nominal flow rate = 30 μL/min) at the following concentrations: 5, 10, 20, 40, and 80 μM.
The RU increase relative to baseline indicates complex formation (taking place at known analytes concentrations at each moment in the gradient); the plateau region represents the steady-state phase of the interaction (RUeq); and the decrease in RU after 180 s represents dissociation of analytes from the immobilized Sirtiun3 after injection of HBSP2%D. Regeneration procedures are based on two long (2000 and 500 s) injections of buffer, separated by a brief (5 s) injection of 10 mM NaOH.
Control experiments were performed in sensor chips treated as described above in the absence of an immobilized ligand. Kinetic evaluation of the sensorgrams was obtained using the SensiQ Qdat program and full fitting with 1, 2, and 3 sites; Scatchard analysis was used to determine apparent KD values.

human SIRT3 [2] = target: T1, human SIRT3; set-up: method as in PMID 36228194; details: 100 μM; cited from earlier work
[3] = test system: GDH activity in MDA-MB-231 cells; assay: GDH activity assay in lysates of treated MDA-MB-231 cells; format: cell-based, human; details: 50 μM, 4 h
Method: Selected compounds 3a–d were tested in triple-negative breast cancer MDA-MB-231 cells to evaluate their effects on SIRT3 physiological substrates. First, the effect on the activity of GDH (an established SIRT3 substrate activated through deacetylation[60]−[62]) was investigated by a coupled enzyme assay. […] These effects of SIRT3 activators clearly phenocopied those observed in the SIRT3-overexpressing MDA-MB-231 cells (SIRT3^+) (Figure 6).
GDH activity in cells treated or not with the SIRT3 activators 3a–d and the reference compounds 2 and 3 was measured using a GDH activity assay kit (MAK099, Merck) following the manufacturer’s instructions. Briefly, 10^6 cells were lysed in 40 μL of GDH assay buffer and kept for 10 min in ice. Afterward, lysates were centrifuged to collect supernatants. Ten microliters of supernatant were added to 40 μL of GDH buffer and 100 μL of a mix containing GDH assay buffer, developer, and glutamate. The whole mix was transferred into a 96-well plate and incubated at 37 °C for 3 min. Finally, absorbance was read at 450 nm using a GloMax multi detection system (Promega, Milan, Italy). The absorbance of the assay buffer was subtracted from each experimental sample.

[4] = test system: HIF-1α, EPAS-1, and CA-IX protein expression in MDA-MB-231; assay: Western blot of HIF-1α, EPAS-1 and CA-IX in MDA-MB-231 cells under hypoxia; format: cell-based, human; details: MDA-MB-231, hypoxia, negative control SIRT3 inhibitor
Method: (§1) Based on these findings, we decided to assess the ability of the SIRT3 activators 3a–d to impair HIF-1α, EPAS-1, and CA-IX protein expression in CAL-62 (Figure 10A–F) and MDA-MB-231 (Figure 11A–F) cell lines treated with the compounds at 50 μM for 48 h and under hypoxia conditions.
(§2) Breast cancer cell line MDA-MB-231, anaplastic thyroid cancer cell line CAL-62 and human keratinocytes HaCaT were purchased from ATCC and were cultured in RPMI 1640 medium (R0883 Sigma Aldrich-MERCK) (MDA-MB-231 and CAL-62) or DMEM medium (11965092, Gibco) supplemented with 10% fetal bovine serum (Sigma-Aldrich-MERCK, F9665), 2 mM glutamine (G7513; Sigma-Aldrich-MERCK), 100 units/mL penicillin and 0.1 mg/mL streptomycin (P0781; Sigma-Aldrich-MERCK). Adherent cells were detached by Trypsin–EDTA solution (TA049; Sigma-Aldrich-MERCK). Cells were maintained at 37 °C in humidified incubator with 5% CO2. Cells were treated with […] (CoCl2) (Merck; C8661) dissolved in distilled, sterile water for 24 h to induce hypoxia (200 μM). Hypoxic and normoxic cells were also treated with 10/50 μM of the indicated compounds (dissolved in DMSO) for 48 h, maintaining the CoCl2 in the culture medium for hypoxic conditions. SIRT3 inhibitor 3-TYP was dissolved in DMSO and added to a final concentration of 1 μM for 24 and/or 48 h.
(§3) The following antibodies were used in this study: ACTB (Merck; A5316), HIF1-α (Cell Signaling; 14179), HIF2/EPAS-1 (Santa Cruz Biotechnology sc-13596), HXKII (Santa Cruz Biotechnology sc-6521), CAIX (Novus Biotechnology NB100-417), SIRT3 (Cell Signaling; 2627S), MnSOD (Abcam ab13533), MnSOD K68 (Abcam ab137037), MnSOD K122 (Abcam ab214675), peroxidase-conjugated AffiniPure Goat Anti-Rabbit IgG (H + L) (Jackson ImmunoResearch; 111-035-003), and peroxidase-conjugated AffiniPure Goat Anti-Mouse IgG (H + L) (Jackson ImmunoResearch; 115-035-062).
(§4) Treated and untreated cells were collected and centrifuged at 3000 rpm for 5 min. After removing the supernatant, cells were lysed in 70 μL of lysis buffer containing: 50 mM Tris-Cl (Merck; 93352), 250 mM sodium chloride (NaCl, Merck; S7653), 5 mM ethylenediaminetetraacetic acid (EDTA; Merck; E6758), 0.1% Triton X-100 and 0.1 mM dithiothreitol (Merck; D9163) plus 1 mM phenylmethylsulfonyl fluoride (PMSF, Merck; 93482), protease inhibitor cocktail (PI; Merck; P8340), 1 mM sodium orthovanadate (NA3VO4, Merck; S6508), and 10 mM sodium fluoride (NaF, Merck; 201154) (lysis buffer). After 30 min on ice, samples were centrifuged at 13,000 rpm for 10 min at 4 °C, and the supernatants collected. Protein concentration was determined by the Bradford assay (Bio-Rad; 500-0205). The equivalent of 15 or 50 μg of protein was boiled for 5 min, electrophoresed onto denaturing SDS-PAGE gel, and transferred onto a […] nitrocellulose membrane (Bio-Rad; 162-0115). After blocking with 5% milk, membranes were incubated with the appropriate primary antibody overnight. The next day, after three washes with 0.1% Tween 20 (Merck; P9416) in PBS (PBST) for 30 min at rt, membranes were incubated with the appropriate secondary antibody for 1 h at rt. After three more washes in PBST, the detection of the relevant protein was assessed by enhanced chemiluminescence (Lite Ablot TURBO, Euro-Clone; EMP012001). Densitometric analysis of the bands, relative to ACTB, was performed using ImageJ Software v1.51 (NIH, Bethesda, MD, USA).

[5] = test system: HIF-1α, EPAS-1, and CA-IX protein expression in CAL-62; assay: Western blot of HIF-1α, EPAS-1 and CA-IX in CAL-62 cells under hypoxia; format: cell-based
Method: as §1, §2, §3, §4

[6] = test system: acK68- and acK122-MnSOD in MDA-MB-231 cells; assay: Western blot of MnSOD acK68 and acK122 marks in MDA-MB-231 cells; format: cell-based, human; details: MDA-MB-231, negative control SIRT3 inhibitor
Method: (§5) K68-MnSOD acetylation promotes a transformation-permissive phenotype, leading to a chemotherapy-resistant breast cancer cell model using cisplatin and doxorubicin.[68] […] The specific SIRT3 inhibitor 3-TYP was utilized as negative control.
as §2, with “Hypoxic and normoxic cells were also treated with 10/50 μM of the indicated compounds (dissolved in DMSO) for 48 h, maintaining the CoCl2 in the culture medium for hypoxic conditions. SIRT3 inhibitor 3-TYP was dissolved in DMSO and added to a final concentration of 1 μM for 24 and/or 48 h.” left out
as §3
(§6) Treated and untreated cells were collected and centrifuged at 3000 rpm for 5 min. […] Protein concentration was determined by the Bradford assay (Bio-Rad; 500-0205). […] After three more washes in PBST, the detection of the relevant protein was assessed by enhanced chemiluminescence (Lite Ablot TURBO, Euro-Clone; EMP012001). […]

[7] = test system: acK68- and acK122-MnSOD in CAL-62 cells; assay: Western blot of MnSOD acK68 and acK122 marks in CAL-62 cells; format: cell-based; details: CAL-62, negative control SIRT3 inhibitor
Method: as §5
as §2, with “Hypoxic and normoxic cells were also treated with 10/50 μM of the indicated compounds (dissolved in DMSO) for 48 h, maintaining the CoCl2 in the culture medium for hypoxic conditions. SIRT3 inhibitor 3-TYP was dissolved in DMSO and added to a final concentration of 1 μM for 24 and/or 48 h.” left out
as §6

**Q.** Which Kd (human SIRT3 [1]) does the source give for `C=CCc1ccc(O)c(-c2ccc(O)c(CC=C)c2)c1` [honokiol] here?
**A.** 40 to 47 µM

**Q.** For `CCOC(=O)C1=CN(C(=O)c2cc(OC)c(OC)c(OC)c2)C=C(C(=O)OCC)C1c1ccccc1` [Compound 3], which SIRT3 activation (human SIRT3 [2]) is on record?
**A.** over 400%

**Q.** What about the Kd (human SIRT3 [1]) of the same compound?
**A.** 40 to 47 µM

**Q.** And the GDH activation [3]?
**A.** around 175%

**Q.** What does the source list for `c1cncc(-c2cnn[nH]2)c1` [3-TYP, reference compound]?
**A.** HIF-1α, EPAS-1, and CA-IX protein expression [4]: did not show any activity; HIF-1α, EPAS-1, and CA-IX protein expression ([5]; CAL-62, hypoxia, negative control SIRT3 inhibitor): negligible effects; acetylation levels of both K68 and K122 residues of MnSOD [6]: markedly increased; acetylation levels of both K68 and K122 residues of MnSOD [7]: markedly increased

**Q.** For `CCOC(=O)C1=CN(C(=O)c2ccc(OC)cc2)C=C(C(=O)OCC)C1c1ccccc1` [Compound 3b, Diethyl 1-(4-methoxybenzoyl)-4-phenyl-1,4-dihydropyridine-3,5-dicarboxylate], which CA-IX protein expression ([5]; CAL-62, 50 μM, 48 h, hypoxia) is on record?
**A.** significantly downregulated

**Q.** What about the “effect on GDH activity in cell lysates” value [3] of the same compound?
**A.** negligible effect
